Article PMC11436104 (Toxins, 2024)
*1 amine or outer side, *2 acyl side, *3 side chain or, on linkers, in order; H or OH if unused. Where a SMILES comes first, the peptide text is derived from it. Bridges are numbered along the chain shown (N, C = ends). [ ]: non-standard residue; d: D form. Adda = CO[C@@H](Cc1ccccc1)[C@@H](C)/C=C(C)/C=C/[C@H](N[*:1])[C@H](C)C(=O)[*:2]; dAsp(3S-Me) = C[C@H](C(=O)[*:3])[C@@H](N[*:1])C(=O)[*:2]; d(γGlu) = O=C(O)[C@@H](CCC(=O)[*:2])N[*:1]; NMeDha = C=C(NC)C(=O)O

Legend:
[1] = Interaction with the air–water interface (Langmuir trough, no lipids); type: physicochemical; conditions: absence of lipids, 0–30 µM injected, 25 °C, pH 7.5
Description: Lateral pressure measurements were carried out in a Langmuir trough (MicroTrough-S system; Kibron, Helsinki, Finland) at room temperature (25 °C) under constant stirring. The aqueous sub-phase was 500 µL 10 mM Hepes, 200 mM NaCl, and pH 7.5.

U87-MG cells = assay: MTT metabolic activity / cell viability; type: cell-based, human
Description: Normal human astrocytes (NHAs; Lonza, Walkersville, MD, USA) were grown and maintained in monolayer cultures in Dulbecco’s modified Eagle’s medium (DMEM; Sigma) supplemented with 10% fetal bovine serum (Euroclone, Pero, MI, Italy), 1% penicillin/streptomycin (Euroclone), 2 mM L-glutamine (Euroclone), and 20 mM Hepes (Invitrogen, Carlsbad, CA, USA). The U87-MG human glioblastoma cells (U87-MG cells; American Type Culture Collection, Manassas, VA, USA) were grown and maintained in monolayer cultures in DMEM supplemented with 10% fetal bovine serum, 1% penicillin/streptomycin, 4 mM L-glutamine, and 1% non-essential amino acids (Sigma).
Cell viability was determined using the 3-(4,5-dimethylthiazolyl-2)-2,5-diphenyltetrazolium bromide (MTT) assay, as according to Mosmann. This assay measures the conversion of MTT to its insoluble formazan by the dehydrogenase enzymes of the intact mitochondria of living cells. […]; Nunclon; Nunc, Naperville, IL, USA) and incubated for 16 h at 37 °C for attachment. […] The amount of formazan, which is proportional to the metabolic activity of cells, was quantified spectrophotometrically at 570 nm (reference filter wavelength, 690 nm) using a microplate reader (Synergy MX; BioTek, Winooski, VT, USA). The metabolic activity of the cells was determined by comparing the optical densities of the CCP-treated cells with those of the negative control. […]

| Structure (SMILES) | concentration at which saturation of the air–water interface was observed [1] [µM] | mean decrease in viability (U87-MG cells) [%] | viability vs control (U87-MG cells) |
| --- | --- | --- | --- |
| CC[C@H](C)[C@@H]1NC(=O)[C@H](Cc2ccc(OC)cc2)N(C)C(=O)[C@H]([C@@H](C)O)N2C(=O)[C@H](CC[C@H]2O)NC(=O)[C@H](CC(C)C)NC(=O)[C@@H](NC(=O)[C@H](CCC(N)=O)NC(=O)[C@H](CCc2ccc(O)cc2)NC(=O)[C@@H](O)CO)[C@@H](C)OC1=O | 25 |  |  |
| C=C1C(=O)N[C@H](C)C(=O)N[C@@H](CC(C)C)C(=O)N[C@@H](C(=O)O)[C@H](C)C(=O)N[C@@H](CCCNC(=N)N)C(=O)N[C@@H](/C=C/C(C)=C/[C@H](C)[C@H](Cc2ccccc2)OC)[C@H](C)C(=O)N[C@@H](C(=O)O)CCC(=O)N1C [MC-LR, Microcystin-LR, reference compound] (R[Adda][d(γGlu)][NMeDha][dA]L[dAsp(3S-Me)]-OH; lactam N-7) |  | 15 | not significantly changed |
